Assays:
[1] = test system: MV4-11 cells; test: MV4-11 CellTiter Glo cell viability/proliferation assay (Example 2); assay type: cell-based; details: Homo sapiens, procedure of Example 2, read-out: IC50, inhibition of proliferation in MV4-11 cells
Experimental: The CellTiter Glo Luminescent cell viability assay is a highly sensitive homogenous assay to determine the number of viable cells in culture based on quantitation of ATP levels in metabolically active cells. Addition of CTG reagent results in cell lysis and generation of a luminescent signal proportional to the amount of ATP present. The amount of ATP is proportional to the number of cells present. The luminescence is measured using a multilabel reader capable of measuring luminescence. An increase or decrease in cell numbers results in a concomitant change in luminescene level, indicating the effect of the test material on cellular proliferation.
CellTiter-Glo buffer was thawed and equilibrated to room temperature. Lyophilized CellTiter-Glo substrate was brought to room temperature. CTG reagent is prepared by mixing the CellTiter-Glo buffer (Promega Cat #G7572) into an amber bottle containing CellTiter-Glo substrate to reconstitute the lyophilized enzyme/substrate mixture. Both Buffer and the lyophilized substrate are supplied with the kit.
Add 1% Penicillin Streptomycin and 10% FBS to commercially available liquid IMDM (Iscove's Modified Dulbecco's Medium, Invitrogen Cat #12440046).
1. MV4-11 cells were counted and re-suspended to a density of 0.1×10^6 cells/ml in complete IMDM medium. 95 μL of this cell suspension was added per well of a 96-well plate (black plate with clear bottom) to seed ˜0.1×10^5 cells per well. The plates were incubated at 37° C. under a humidified atmosphere of 5% CO2 for ˜2 hours before compound addition. 2. Test compounds were dissolved in 100% DMSO to generate a 2/6/10/20 mM stock solution. A 200× concentration of the required final concentrations was prepared in DMSO. 10 μL of each concentration (200×) was then diluted in 90 μL of serum-free IMDM to prepare an intermediate concentration of 20× in medium. The DMSO concentration in this step was 10% (Intermediate dilution). 5 μL of each intermediate dilution was then added in triplicates to cells previously seeded in 96-well plate. The final DMSO concentration was 0.5% in the experimental wells. Cells treated with 0.5% DMSO served as a positive control. 100 μL of complete IMDM medium served as media blank for data analysis. 200 μL of 1×PBS was added in all corner wells of the assay plate to avoid evaporation of media in experimental wells. Plates were then incubated for 72 hours in an incubator with 5% CO2 at 37° C. 3. To terminate the assay, 50 μL of CTG reagent was added to each well and the plate was incubated at room temperature for 15 minutes on a shaker. The plate was read using the luminescence mode on a multilabel reader capable of measuring luminescence. The luminescence values were plotted against respective concentrations of the test item using GraphPad Prism to calculate the IC50 value for the test item. Percent Inhibition is Calculated as Follows: […]
Positive control wells contained cells, IMDM medium and 0.5% DMSO. Blank control wells contained IMDM medium alone.

[2] = test system: MV4-11 cells; test: AML xenograft model MV4-11, in vivo tumor growth inhibition
Experimental: ND-2158 at 100 mpk was used as a control.
MV4-11 cells were grown in Iscove's Modified Dulbecco's medium supplemented with 10% FBS and 1% penicillin streptomycin. To establish tumors, 15×10^6 MV4-11 cells were injected subcutaneously in 200 μl of 1:1 HBSS and ECM gel into the right flank of the athymic nude mice. Animals were randomized based on tumor volumes. […] Treatments were initiated when the average tumor volume sizes were 333 mm^3. Tumor volumes were measured three times a week and body weights were monitored daily.

[3] = test system: MV4-11 cell line; test: Anti-proliferative activity, MV4-11 cell line (Example 5, CellTiter Glo); assay type: cell-based; details: Homo sapiens, Example 5 procedure, 5,000 cells/well
Experimental: (§1) The same procedure was used for both the MV4-11 cells and MOLM-13 cells. Each cell line has an ITD mutation in the FLT-3 kinase.
(§2) The cells were grown to ˜80% confluence, split in half and grown overnight. The cells were seeded at a density of 5,000 cells/well in a volume of 150 μL into a 96-well black plate in all wells except columns 1 and 12 and rows A and H. They were incubated overnight in 10% serum and HBSS was added to wells on the periphery. In a deep 96-well plate, 1000 μL of 10% FBS was added into wells B2 and D2. 750 μL of 10% FBS, 1% DMSO medium per well was added in row B except well B2. 5 μL of 20 mM compound was added into well B2. 250 μL was transferred from column 2 to column 3 and mixed. The process was repeated until column G to give a 1:4 dilution. 15 μL of compound mixture was added to each well of the cell plate (135 μL volume).

[4] = test system: MOLM-13 cell line; test: Anti-proliferative activity, MOLM-13 cell line (Example 5, CellTiter Glo); assay type: cell-based; details: Homo sapiens, Example 5 procedure, 5,000 cells/well
Experimental: as §1, §2

[5] = test system: MOLM-14 FLT3-ITD tumors; test: MOLM-14 FLT3-ITD mouse xenograft tumor model; assay type: in vivo, athymic nude mice; details: 100 mg/kg orally once-daily, after 12 or 14 days of dosing
Text: (§3) Compound A efficacy was compared to mice administered vehicle.

[6] = test system: MOLM-14 FLT3-ITD/F691L tumors; test: MOLM-14 FLT3-ITD/F691L mouse xenograft tumor model; assay type: in vivo, athymic nude mice; details: 100 mg/kg orally once-daily, after 12 or 14 days of dosing
Text: as §3

[7] = test system: MOLM-14 FLT3-ITD/D835Y tumors; test: MOLM-14 FLT3-ITD/D835Y mouse xenograft tumor model; assay type: in vivo, athymic nude mice; details: 100 mg/kg orally once-daily, after 12 or 14 days of dosing
Text: as §3

[8] = test system: MOLM-14 cell line (FLT3-ITD); test: Cell viability assay (CellTiter-Glo, 72 h), parental MOLM-14; assay type: cell-based; details: Homo sapiens, mean of at least 3 assays
Experimental: (§4) The parental MOLM-14 cell line contained a FLT3-ITD mutation. Quizartinib-resistant MOLM-14 derivative cell lines MOLM-14 FLT3-ITD/D835Y and MOLM-14 FLT3-ITD/F691L contained a double FLT3 mutation (the original ITD mutation and a secondary mutation within the kinase domain).
(§5) All cells lines were cultured in RPMI 1640+GlutaMAX supplemented with 1× Pen-Strep and 10% FBS (referred to as media hereafter). Cells were cultured in 75 cm^2 or 225 cm^2 tissue culture flasks in a 37° C. humidified tissue culture incubator with 5% CO2. Cell densities were maintained between 0.5-2.0×10^6 cells/mL.
(§6) Two days before compound treatment, cells were pelleted and resuspended in fresh medium. The day of dosing, cells were counted and stained with trypan blue to determine cell viability. 5,000 viable cells were transferred in a volume of 90 μL or 135 μL per well to all wells of a 96-well tissue culture plate and returned to the tissue culture incubator. […]
(§7) After 72 h incubation, cell viability was assessed using the CellTiter-Glo Luminescent Cell Viability Assay (2.0) according to the vendor's instructions. […] Luminescence readings were measured using a TopCount384 instrument.
(§8) The percent inhibition of the compound treated samples was determined relative to the DMSO-treated cell control samples. […] The mean EC50 values from at least 3 independent viability assays performed on different days were determined.

[9] = test system: MOLM-14 FLT3-ITD/D835Y; test: Cell viability assay (CellTiter-Glo, 72 h), MOLM-14 FLT3-ITD/D835Y; assay type: cell-based; details: Homo sapiens, mean of at least 3 assays
Experimental: as §4, §5, §6, §7, §8

[10] = test system: MOLM-14 FLT3-ITD/F691L; test: Cell viability assay (CellTiter-Glo, 72 h), MOLM-14 FLT3-ITD/F691L; assay type: cell-based; details: Homo sapiens, mean of at least 3 assays
Experimental: as §4, §5, §6, §7, §8

Cc1cc(-c2nc(C(=O)Nc3cc4oc(N5CCOCC5)nc4nc3N3CC[C@@H](O)C3)co2)ccn1 [Compound A]
IC50 [1]: 31 nM
tumor growth inhibition ([2]; 12.5 mg/kg orally once daily, 21 days): 92%
tumor response ([2]; 25 mg/kg orally once daily, 21 days): partial tumor regression
tumor response ([2]; 50 mg/kg orally once daily, 21 days): partial tumor regression
tolerability (clinical signs, gross pathological changes) ([2]; 12.5, 25, and 50 mg/kg orally once daily, 21 days): well tolerated without any treatment related clinical signs and gross pathological changes
tumor response ([2]; 12.5 mpk, after 21 days of treatment): Tumor growth stasis
body weight ([2]; all treatment groups, 21 days, FIG. 4): No body weight reduction was observed
IC50 [3]: 70 nM
IC50 [4]: 190 nM
percent tumor growth inhibition (% TGI) [5]: 90%
percent tumor growth inhibition (% TGI) [6]: 73%
percent tumor growth inhibition (% TGI) [7]: 98%
EC50 [8]: 58 nM
EC50 [9]: 108 nM
EC50 [10]: 2490 nM

Reference: patent US11419875B2, “Compounds and compositions for treating hematological disorders” (Aurigene Discovery Technologies Limited, priority 2017, dated 2022)
